What was measured:
[1] = tested on: HAP deposited on spherules; experiment: In vitro drusen model: production of HAP-protein-lipid proto-spherules (fluorescence emission reflects HAP deposited); assay type: biochemical
Text: (§1) An in vitro assay was designed to produce proto-spherule like those found in AMD drusen. HAP was detected with a specific fluorescent dye. This assay was used to discover inhibitors.
(§2) In Vitro Drusen Model: Production of HAP-Protein-Lipid Proto-Spherules
(§3) In this model, fluorescence emission reflected the amount of HAP deposited on spherules. The results are show in FIG. 1. […] Pyrophosphate (PPi) is a mineralization inhibitor and serves as negative control. There are many HAP-binding proteins but Vn is unique: it plays an active role in HAP mineralization.

[2] = target: T1, human blood protein vitronectin (Vn) (Homo sapiens, UniProt P04004); experiment: In vitro drusen model used to test Vn antibodies as inhibitors of Vn-dependent HAP deposition; assay type: biochemical; details: FIG. 2
T1 construct: made in house; host or cells: Escherichia coli
T1 sequence (P04004 20-478): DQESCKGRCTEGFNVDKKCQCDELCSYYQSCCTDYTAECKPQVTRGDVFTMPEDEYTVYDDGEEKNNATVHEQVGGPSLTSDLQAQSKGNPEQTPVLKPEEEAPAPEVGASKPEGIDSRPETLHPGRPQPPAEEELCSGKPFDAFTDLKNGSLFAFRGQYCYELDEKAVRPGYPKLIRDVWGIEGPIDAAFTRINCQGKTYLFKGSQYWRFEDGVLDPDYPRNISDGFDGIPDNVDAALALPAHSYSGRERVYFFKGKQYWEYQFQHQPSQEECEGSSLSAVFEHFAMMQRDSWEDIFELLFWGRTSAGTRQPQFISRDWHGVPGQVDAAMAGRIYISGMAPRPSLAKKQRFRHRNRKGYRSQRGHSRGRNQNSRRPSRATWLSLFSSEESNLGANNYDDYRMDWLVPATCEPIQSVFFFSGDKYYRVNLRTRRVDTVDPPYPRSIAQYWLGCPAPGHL
Description: as §1
Vn was prepared from Escherichia coli. All buffer solutions were prepared with Milli-Q deionized water. For calcium-free preparations, the protein was folded by dropwise dilution from buffer T1 (20 mM Tris HCl pH 8, 6 M guanidine, 10 mM dithiothreitol) into buffer T2 (20 mM Tris HCl pH 8, 500 mM ArgCl, 300 mM NaCl, 5 mM β-mercaptoethanol, 1 mM hydroxyethyldisulfide), followed by dialysis into buffer MI (20 mM MES, pH 6.5, 300 mM NaCl) and size exclusion chromatography (Superdex 200 10/300 GL, GE Healthcare). Calcium-containing samples were prepared by supplementing buffer MI with CaCl2).
as §2, §3
This assay was used to test Vn antibodies (need details on Abc, Abm and Abn and IGF II) as potential inhibitors.

Row | Substance | effect on HAP deposition / mineralization on spherules (fluorescence emission) ([1]; FIG. 1) | effect on HAP deposition / mineralization on spherules (fluorescence emission) ([1]; FIG. 1, listed as Vn) | effect on HAP deposition (fluorescence emission) [2]
1 | Amyloid-β (Aβ): Amyloid-β, comparison protein in the in vitro drusen model [reference compound] | no significant effect on HAP mineralization | – | –
2 | Vitronectin: human blood protein vitronectin, prepared from Escherichia coli | increases HAP deposition on spherules in a dose-dependent and time-dependent manner | promotes HAP formation | promotes HAP deposition in a dose- and time-dependent manner

From patent US20240342080A1, “COMPOSITIONS AND METHODS FOR INHIBITING HUMAN BLOOD PROTEIN VITRONECTIN” (Sanford Burnham Prebys Medical Discovery Institute, priority 2021, published 2024)
